Experimental data taken from the supplement of paper PMC11208160.

Experiment: recombinant barcode read abundance after kanamycin selection (control-corrected) (log10(CPM+1)); higher = more efficient recombination; sequences stand for … in AGTGCAGAGAAAATCGGCCAGTTTTCTCTGCCTGCAGTCCGCATGCCGT…ATTTATGCAGCGGACTGCCTTTCTCCCAAAGTGATAAACCGGACAGTATCATGGACCGGTTTTCCCGGTAATCCGTATTTGCAAGGTTGGTTTCACT; site = the 11-nt target
Outline: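 A promoter, a target, a barcode and the first 104 bridge RNA bases under J23119 made up each oligo. Oligos were Gibson-cloned into a vector bearing the other 73 bp and a T7-inducible recombinase, then co-electroporated into E. coli with a donor plasmid and plated in duplicate on chloramphenicol/ampicillin LB agar (control) or chloramphenicol/ampicillin/kanamycin with 0.1 mM IPTG. Recombination efficiency is the averaged, control-corrected counts per million of recombinant-junction barcodes. Reported values are log10(CPM+1).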

Sequence | recombinant barcode read abundance (log10)
GGACACCAATGGGTTCTAACCTGTTGCCTTT [GGACACCCTAG_LTGcore_AA_RTGcore_AA] (site GGACACCCTAG) (LTG core: AA, RTG core: AA) | 0.364
GGACACCCTTGGGTTCTAACCTGTTGCCTGC [GGACACCCTAG_LTGcore_CT_RTGcore_GC] (site GGACACCCTAG) (LTG core: CT, RTG core: GC) | 1.55
GGACACCGCTGGGTTCTAACCTGTTGCCTAG [GGACACCCTAG_LTGcore_GC_RTGcore_CT] (site GGACACCCTAG) (LTG core: GC, RTG core: CT) | 0.105
GGACACCTCTGGGTTCTAACCTGTTGCCTGA [GGACACCCTAG_LTGcore_TC_RTGcore_TC] (site GGACACCCTAG) (LTG core: TC, RTG core: TC) | 0.149
GGACACCTGTGGGTTCTAACCTGTTGCCTAG [GGACACCCTAG_LTGcore_TG_RTGcore_CT] (site GGACACCCTAG) (LTG core: TG, RTG core: CT) | 0.0753
GGACACCTGTGGGTTCTAACCTGTTGCCTCA [GGACACCCTAG_LTGcore_TG_RTGcore_TG] (site GGACACCCTAG) (LTG core: TG, RTG core: TG) | 0.15
GGACACCTTTGGGTTCTAACCTGTTGCCTAA [GGACACCCTAG_LTGcore_TT_RTGcore_TT] (site GGACACCCTAG) (LTG core: TT, RTG core: TT) | 0.175
GGACACCTTTGGGTTCTAACCTGTTGCCTAG [GGACACCCTAG_LTGcore_TT_RTGcore_CT] (site GGACACCCTAG) (LTG core: TT, RTG core: CT) | 0.0765
GGCTCCCATTGGGTTCTAACCTGTTGCGGAG [GGCTCCCCTCC_LTGcore_AT_RTGcore_CT] (site GGCTCCCCTCC) (LTG core: AT, RTG core: CT) | 0.157
GGCTCCCCTTGGGTTCTAACCTGTTGCGGAC [GGCTCCCCTCC_LTGcore_CT_RTGcore_GT] (site GGCTCCCCTCC) (LTG core: CT, RTG core: GT) | 0.0822
GGCTCCCCTTGGGTTCTAACCTGTTGCGGGA [GGCTCCCCTCC_LTGcore_CT_RTGcore_TC] (site GGCTCCCCTCC) (LTG core: CT, RTG core: TC) | 0.302
GGCTCCCCTTGGGTTCTAACCTGTTGCGGGC [GGCTCCCCTCC_LTGcore_CT_RTGcore_GC] (site GGCTCCCCTCC) (LTG core: CT, RTG core: GC) | 0.112
GGCTCCCGCTGGGTTCTAACCTGTTGCGGAG [GGCTCCCCTCC_LTGcore_GC_RTGcore_CT] (site GGCTCCCCTCC) (LTG core: GC, RTG core: CT) | 0.0135
GGCTCCCGGTGGGTTCTAACCTGTTGCGGAG [GGCTCCCCTCC_LTGcore_GG_RTGcore_CT] (site GGCTCCCCTCC) (LTG core: GG, RTG core: CT) | 0.0853
GGCTCCCTATGGGTTCTAACCTGTTGCGGAG [GGCTCCCCTCC_LTGcore_TA_RTGcore_CT] (site GGCTCCCCTCC) (LTG core: TA, RTG core: CT) | 0.233
GGGAGCCACTGGGTTCTAACCTGTTGCTGGT [GGGAGCCCTCA_LTGcore_AC_RTGcore_AC] (site GGGAGCCCTCA) (LTG core: AC, RTG core: AC) | 0.222
GGGAGCCCCTGGGTTCTAACCTGTTGCTGGG [GGGAGCCCTCA_LTGcore_CC_RTGcore_CC] (site GGGAGCCCTCA) (LTG core: CC, RTG core: CC) | 0.0526
GGGAGCCCTTGGGTTCTAACCTGTTGCTGAC [GGGAGCCCTCA_LTGcore_CT_RTGcore_GT] (site GGGAGCCCTCA) (LTG core: CT, RTG core: GT) | 1.06
GGGAGCCCTTGGGTTCTAACCTGTTGCTGGA [GGGAGCCCTCA_LTGcore_CT_RTGcore_TC] (site GGGAGCCCTCA) (LTG core: CT, RTG core: TC) | 0.172
GGGAGCCCTTGGGTTCTAACCTGTTGCTGTA [GGGAGCCCTCA_LTGcore_CT_RTGcore_TA] (site GGGAGCCCTCA) (LTG core: CT, RTG core: TA) | 0.029
GGGAGCCGTTGGGTTCTAACCTGTTGCTGAC [GGGAGCCCTCA_LTGcore_GT_RTGcore_GT] (site GGGAGCCCTCA) (LTG core: GT, RTG core: GT) | 0.168
GGGAGCCGTTGGGTTCTAACCTGTTGCTGAG [GGGAGCCCTCA_LTGcore_GT_RTGcore_CT] (site GGGAGCCCTCA) (LTG core: GT, RTG core: CT) | 0.186
GGGAGCCTCTGGGTTCTAACCTGTTGCTGAG [GGGAGCCCTCA_LTGcore_TC_RTGcore_CT] (site GGGAGCCCTCA) (LTG core: TC, RTG core: CT) | 0.0348

Sequence | recombinant barcode read abundance (log10)
GGGAGCCTCTGGGTTCTAACCTGTTGCTGGA [GGGAGCCCTCA_LTGcore_TC_RTGcore_TC] (site GGGAGCCCTCA) (LTG core: TC, RTG core: TC) | 0.0883
GGGAGCCTTTGGGTTCTAACCTGTTGCTGAA [GGGAGCCCTCA_LTGcore_TT_RTGcore_TT] (site GGGAGCCCTCA) (LTG core: TT, RTG core: TT) | 0.11
GGGCGGACTTGGGTTCTAACCTGTTGCGGAG [GGGCGGACTCC_LTGcore_CT_RTGcore_CT] (site GGGCGGACTCC) (LTG core: CT, RTG core: CT) | 2.08
GGGCGGACTTGGGTTCTAACCTGTTGCGGCC [GGGCGGACTCC_LTGcore_CT_RTGcore_GG] (site GGGCGGACTCC) (LTG core: CT, RTG core: GG) | 0.0677
GGGCGGACTTGGGTTCTAACCTGTTGCGGCG [GGGCGGACTCC_LTGcore_CT_RTGcore_CG] (site GGGCGGACTCC) (LTG core: CT, RTG core: CG) | 0.232
GGGCGGACTTGGGTTCTAACCTGTTGCGGGG [GGGCGGACTCC_LTGcore_CT_RTGcore_CC] (site GGGCGGACTCC) (LTG core: CT, RTG core: CC) | 0.212
GGGCGGACTTGGGTTCTAACCTGTTGCGGTA [GGGCGGACTCC_LTGcore_CT_RTGcore_TA] (site GGGCGGACTCC) (LTG core: CT, RTG core: TA) | 0.0865
GGGCGGACTTGGGTTCTAACCTGTTGCGGTT [GGGCGGACTCC_LTGcore_CT_RTGcore_AA] (site GGGCGGACTCC) (LTG core: CT, RTG core: AA) | 0.765
GGGCGGAGATGGGTTCTAACCTGTTGCGGTC [GGGCGGACTCC_LTGcore_GA_RTGcore_GA] (site GGGCGGACTCC) (LTG core: GA, RTG core: GA) | 0.235
GGGCGGATCTGGGTTCTAACCTGTTGCGGAG [GGGCGGACTCC_LTGcore_TC_RTGcore_CT] (site GGGCGGACTCC) (LTG core: TC, RTG core: CT) | 0.798
GGGCGGATTTGGGTTCTAACCTGTTGCGGAA [GGGCGGACTCC_LTGcore_TT_RTGcore_TT] (site GGGCGGACTCC) (LTG core: TT, RTG core: TT) | 0.223
GGGCGGATTTGGGTTCTAACCTGTTGCGGAG [GGGCGGACTCC_LTGcore_TT_RTGcore_CT] (site GGGCGGACTCC) (LTG core: TT, RTG core: CT) | 0.188
GGGCGTGAATGGGTTCTAACCTGTTGCCTAG [GGGCGTGCTAG_LTGcore_AA_RTGcore_CT] (site GGGCGTGCTAG) (LTG core: AA, RTG core: CT) | 0.0426
GGGCGTGCCTGGGTTCTAACCTGTTGCCTGG [GGGCGTGCTAG_LTGcore_CC_RTGcore_CC] (site GGGCGTGCTAG) (LTG core: CC, RTG core: CC) | 0.138
GGGCGTGCGTGGGTTCTAACCTGTTGCCTAG [GGGCGTGCTAG_LTGcore_CG_RTGcore_CT] (site GGGCGTGCTAG) (LTG core: CG, RTG core: CT) | 0.0925
GGGCGTGCTTGGGTTCTAACCTGTTGCCTCC [GGGCGTGCTAG_LTGcore_CT_RTGcore_GG] (site GGGCGTGCTAG) (LTG core: CT, RTG core: GG) | 1.53
GGGCGTGCTTGGGTTCTAACCTGTTGCCTGC [GGGCGTGCTAG_LTGcore_CT_RTGcore_GC] (site GGGCGTGCTAG) (LTG core: CT, RTG core: GC) | 0.847
GGGCGTGCTTGGGTTCTAACCTGTTGCCTTC [GGGCGTGCTAG_LTGcore_CT_RTGcore_GA] (site GGGCGTGCTAG) (LTG core: CT, RTG core: GA) | 0.564
GGGCGTGTATGGGTTCTAACCTGTTGCCTAG [GGGCGTGCTAG_LTGcore_TA_RTGcore_CT] (site GGGCGTGCTAG) (LTG core: TA, RTG core: CT) | 0
GGGCGTGTATGGGTTCTAACCTGTTGCCTTA [GGGCGTGCTAG_LTGcore_TA_RTGcore_TA] (site GGGCGTGCTAG) (LTG core: TA, RTG core: TA) | 0.36
GGTGCCCCTTGGGTTCTAACCTGTTGCCGAC [GGTGCCCCTCG_LTGcore_CT_RTGcore_GT] (site GGTGCCCCTCG) (LTG core: CT, RTG core: GT) | 0.297
GGTGCCCCTTGGGTTCTAACCTGTTGCCGTC [GGTGCCCCTCG_LTGcore_CT_RTGcore_GA] (site GGTGCCCCTCG) (LTG core: CT, RTG core: GA) | 0.332
